Values of other authors in US20240344094A1, “METHODS AND COMPOSITIONS USEFUL FOR THE PRODUCTION OF OLEFINIC ESTER” (THE REGENTS OF THE UNIVERSITY OF CALIFORNIA, priority 2021, published 2024).

| solubility in water (20° in water) | solubility limit in water (water) | SMILES |
| --- | --- | --- |
| about 90 g/L | – | C=C(C)CCO [Isoprenol, 3-methyl-3-buten-1-ol] |
| – | ~10000 µg/mL | CC(=O)OCCC(C)C [isoamyl acetate] |
